Drawing on US11352359B2, “PI3K protein kinase inhibitors” (Rhizen Pharmaceuticals SA, priority 2013, dated 2022), this text covers inhibition, melting point and IC50 for 13 compounds.

One data set has as its target PI3Kα (Homo sapiens, UniProt P42336). Kind of data set: Fluorescent determination of PI3Kinase enzyme activity (HTRF), PI3Kα. It is filed as biochemical. The source says: (§1) Fluorescent Determination of PI3Kinase Enzyme Activity
(§2) Phosphoinositide 3 kinases (PI3K) belong to a class of Lipid kinases that play a critical role in the regulation of several key cellular processes. The PI3K are capable of phosphorylating the 3-hydroxy position of phosphoinositols thereby generating second messengers involved in downstream signalling events. The homogenous time resolved fluorescence (HTRF) assay allows detection of 3,4,5-triphosphate (PIP3) formed as a result of phosphorylation of phosphotidylinositol 4,5-biphosphate (PIP2) by PI3K isoforms such as α, […], γ or δ.
(§3) PI3K isoform activity for α, β, γ or δ is to be determined using a PI3K human HTRF™ Assay Kit (Millipore, Billerica, Mass.) with modifications. All incubations were carried out at room temperature. Briefly, 0.5 μl of 40× inhibitor (in 100% DMSO) or 100% DMSO were added to each well of a 384-well black plate (Greiner Bio-One, Monroe, N.C.) containing 14.5 μl 1× reaction buffer/PIP2 (10 mM MgCl2, 5 mM DTT, 1.38 μM PIP2) mix with or without enzyme and incubated for 10 min. After the initial incubation, 5 μl/well of 400 μM ATP was added and incubated for an additional 30 minutes. Reaction was terminated by adding 5 μl/well stop solution (Millipore, Billerica, Mass.). Five microliters of detection mix (Millipore, Billerica, Mass.) were then added to each well and was incubated for 6-18 h in the dark. HRTF ratio was measured on a microplate reader (BMG Labtech, Germany) at an excitation wavelength of 337 nm and emission wavelengths of 665 and 620 nm with an integration time of 400 μsec. Data was analyzed using Graphpad Prism (Graphpad software; San Diego Calif.) for IC50 determination).
For orientation: TR-FRET usually uses a lanthanide donor and a delayed reading to cut background.

The next data set addresses PI3Kβ (Homo sapiens, UniProt P42338). Description: Fluorescent determination of PI3Kinase enzyme activity (HTRF), PI3Kβ. It counts as biochemical.
Description: as §1, §2, §3

The next data set has as its target PI3Kγ (Homo sapiens, UniProt P48736). Description: Fluorescent determination of PI3Kinase enzyme activity (HTRF), PI3Kγ. It counts as biochemical. Conditions: for inhibition at 0.1 µM: 100 nM (underlined values: 300 nM).
Description: as §1, §2, §3

In the next data set the target is PI3Kδ (Homo sapiens, UniProt O00329). Kind of data set: Fluorescent determination of PI3Kinase enzyme activity (HTRF), PI3Kδ. It counts as biochemical. Conditions: for inhibition at 0.1 µM: 100 nM (underlined values: 300 nM).
Sequence of PI3Kδ (O00329 whole entry): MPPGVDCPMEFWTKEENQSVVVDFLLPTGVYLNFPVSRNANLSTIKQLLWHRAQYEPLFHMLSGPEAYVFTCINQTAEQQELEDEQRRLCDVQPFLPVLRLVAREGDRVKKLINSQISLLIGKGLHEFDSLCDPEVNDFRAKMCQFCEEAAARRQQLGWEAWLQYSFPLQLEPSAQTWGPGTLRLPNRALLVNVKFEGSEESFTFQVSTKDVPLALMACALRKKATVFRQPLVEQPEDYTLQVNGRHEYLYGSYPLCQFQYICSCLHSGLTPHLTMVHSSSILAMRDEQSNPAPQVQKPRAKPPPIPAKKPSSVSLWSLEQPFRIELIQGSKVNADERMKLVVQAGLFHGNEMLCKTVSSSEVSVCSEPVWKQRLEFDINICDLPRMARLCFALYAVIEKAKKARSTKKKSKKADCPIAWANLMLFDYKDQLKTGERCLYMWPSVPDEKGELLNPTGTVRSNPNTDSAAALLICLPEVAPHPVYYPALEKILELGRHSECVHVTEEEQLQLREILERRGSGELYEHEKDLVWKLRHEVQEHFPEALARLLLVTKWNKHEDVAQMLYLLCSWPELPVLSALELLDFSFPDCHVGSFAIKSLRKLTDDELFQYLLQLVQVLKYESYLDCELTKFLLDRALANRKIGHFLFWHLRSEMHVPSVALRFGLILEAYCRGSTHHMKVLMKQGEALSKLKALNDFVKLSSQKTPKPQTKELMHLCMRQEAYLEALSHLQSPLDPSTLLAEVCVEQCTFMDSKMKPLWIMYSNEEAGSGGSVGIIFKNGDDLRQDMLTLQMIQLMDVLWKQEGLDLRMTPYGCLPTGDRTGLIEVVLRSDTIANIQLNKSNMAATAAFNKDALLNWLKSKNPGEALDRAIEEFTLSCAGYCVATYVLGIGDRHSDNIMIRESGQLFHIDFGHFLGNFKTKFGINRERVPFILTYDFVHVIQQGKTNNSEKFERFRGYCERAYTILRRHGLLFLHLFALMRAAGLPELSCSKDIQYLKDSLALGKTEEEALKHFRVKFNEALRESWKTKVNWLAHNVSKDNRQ
Sequence of PI3Kδ (P27986 whole entry partner): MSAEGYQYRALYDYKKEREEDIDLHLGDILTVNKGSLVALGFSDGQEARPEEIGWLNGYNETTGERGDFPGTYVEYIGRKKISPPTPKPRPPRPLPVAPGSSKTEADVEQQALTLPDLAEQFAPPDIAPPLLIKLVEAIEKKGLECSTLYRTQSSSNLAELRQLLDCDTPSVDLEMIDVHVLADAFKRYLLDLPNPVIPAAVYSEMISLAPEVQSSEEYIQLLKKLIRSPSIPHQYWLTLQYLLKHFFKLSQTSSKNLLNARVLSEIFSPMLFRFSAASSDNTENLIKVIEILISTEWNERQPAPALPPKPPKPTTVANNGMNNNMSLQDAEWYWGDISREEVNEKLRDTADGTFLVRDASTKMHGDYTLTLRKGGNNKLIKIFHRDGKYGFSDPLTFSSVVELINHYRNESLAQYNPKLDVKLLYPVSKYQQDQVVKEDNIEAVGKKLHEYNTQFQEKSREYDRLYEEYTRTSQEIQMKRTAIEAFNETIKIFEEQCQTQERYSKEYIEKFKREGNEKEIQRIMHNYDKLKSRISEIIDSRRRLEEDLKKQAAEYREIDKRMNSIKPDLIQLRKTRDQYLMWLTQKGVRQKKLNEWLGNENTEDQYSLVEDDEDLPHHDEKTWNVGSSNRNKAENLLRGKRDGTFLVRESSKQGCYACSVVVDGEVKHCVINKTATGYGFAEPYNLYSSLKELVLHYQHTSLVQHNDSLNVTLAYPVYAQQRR
Description: as §1, §2, §3

Sequence of PI3Kγ (P48736 whole entry): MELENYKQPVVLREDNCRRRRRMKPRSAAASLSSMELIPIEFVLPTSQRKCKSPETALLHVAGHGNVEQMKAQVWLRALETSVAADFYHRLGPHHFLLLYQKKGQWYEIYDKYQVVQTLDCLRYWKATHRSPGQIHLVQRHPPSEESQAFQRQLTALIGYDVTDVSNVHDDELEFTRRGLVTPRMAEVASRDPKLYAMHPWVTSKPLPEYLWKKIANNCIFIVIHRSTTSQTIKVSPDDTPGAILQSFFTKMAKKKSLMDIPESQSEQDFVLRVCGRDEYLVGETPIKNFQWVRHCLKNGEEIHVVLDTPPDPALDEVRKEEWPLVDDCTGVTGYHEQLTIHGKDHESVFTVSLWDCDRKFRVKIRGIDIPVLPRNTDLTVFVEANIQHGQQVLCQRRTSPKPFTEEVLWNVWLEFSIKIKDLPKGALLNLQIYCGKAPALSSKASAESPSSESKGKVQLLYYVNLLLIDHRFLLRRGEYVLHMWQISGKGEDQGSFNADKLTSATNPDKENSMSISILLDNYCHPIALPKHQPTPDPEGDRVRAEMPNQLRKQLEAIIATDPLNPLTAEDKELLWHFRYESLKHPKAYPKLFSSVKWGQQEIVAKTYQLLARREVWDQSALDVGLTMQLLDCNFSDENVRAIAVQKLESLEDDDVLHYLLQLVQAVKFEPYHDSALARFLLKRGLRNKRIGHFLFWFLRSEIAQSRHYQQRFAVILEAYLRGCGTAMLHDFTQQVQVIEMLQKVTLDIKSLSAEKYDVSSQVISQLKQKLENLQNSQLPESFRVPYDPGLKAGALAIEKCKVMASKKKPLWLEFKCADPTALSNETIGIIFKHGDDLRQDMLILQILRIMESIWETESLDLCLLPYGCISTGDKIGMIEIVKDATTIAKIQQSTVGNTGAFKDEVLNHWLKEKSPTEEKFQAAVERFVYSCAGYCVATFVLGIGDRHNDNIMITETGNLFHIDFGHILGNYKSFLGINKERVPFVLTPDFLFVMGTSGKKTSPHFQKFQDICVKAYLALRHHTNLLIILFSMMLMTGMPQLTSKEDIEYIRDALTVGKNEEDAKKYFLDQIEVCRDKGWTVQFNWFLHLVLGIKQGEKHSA
Sequence of PI3Kα (P42336 whole entry, canonical isoform): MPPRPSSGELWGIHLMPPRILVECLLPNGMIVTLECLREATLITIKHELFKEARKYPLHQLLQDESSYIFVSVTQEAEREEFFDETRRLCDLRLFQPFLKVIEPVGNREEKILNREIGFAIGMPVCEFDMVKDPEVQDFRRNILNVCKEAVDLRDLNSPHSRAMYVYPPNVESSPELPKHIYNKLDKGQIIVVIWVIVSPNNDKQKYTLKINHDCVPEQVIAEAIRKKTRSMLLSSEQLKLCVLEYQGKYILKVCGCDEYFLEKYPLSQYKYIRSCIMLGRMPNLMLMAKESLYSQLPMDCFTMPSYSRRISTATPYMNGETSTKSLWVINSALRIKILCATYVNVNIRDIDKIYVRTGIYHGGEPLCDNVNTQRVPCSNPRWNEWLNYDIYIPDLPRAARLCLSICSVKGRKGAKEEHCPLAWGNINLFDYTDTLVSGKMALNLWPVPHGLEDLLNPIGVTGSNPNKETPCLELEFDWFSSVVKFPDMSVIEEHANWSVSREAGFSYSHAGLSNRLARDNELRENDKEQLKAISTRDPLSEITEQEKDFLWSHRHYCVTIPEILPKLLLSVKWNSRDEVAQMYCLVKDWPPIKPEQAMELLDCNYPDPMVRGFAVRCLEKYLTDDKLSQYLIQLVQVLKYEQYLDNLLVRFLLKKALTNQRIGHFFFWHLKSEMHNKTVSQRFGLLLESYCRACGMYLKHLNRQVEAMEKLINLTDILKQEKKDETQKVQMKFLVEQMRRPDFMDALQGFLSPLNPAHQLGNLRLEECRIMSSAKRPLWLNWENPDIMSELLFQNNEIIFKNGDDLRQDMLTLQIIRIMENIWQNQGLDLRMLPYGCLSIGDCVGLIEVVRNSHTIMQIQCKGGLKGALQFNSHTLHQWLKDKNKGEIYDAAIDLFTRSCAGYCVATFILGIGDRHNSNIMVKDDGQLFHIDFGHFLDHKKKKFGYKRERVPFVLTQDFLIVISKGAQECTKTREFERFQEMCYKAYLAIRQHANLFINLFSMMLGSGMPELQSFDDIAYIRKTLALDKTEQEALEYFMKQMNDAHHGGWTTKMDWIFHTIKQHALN
Sequence of PI3Kα (P27986 whole entry partner, canonical isoform): as the sequence (P27986 whole entry partner) above
Sequence of PI3Kβ (P42338 whole entry): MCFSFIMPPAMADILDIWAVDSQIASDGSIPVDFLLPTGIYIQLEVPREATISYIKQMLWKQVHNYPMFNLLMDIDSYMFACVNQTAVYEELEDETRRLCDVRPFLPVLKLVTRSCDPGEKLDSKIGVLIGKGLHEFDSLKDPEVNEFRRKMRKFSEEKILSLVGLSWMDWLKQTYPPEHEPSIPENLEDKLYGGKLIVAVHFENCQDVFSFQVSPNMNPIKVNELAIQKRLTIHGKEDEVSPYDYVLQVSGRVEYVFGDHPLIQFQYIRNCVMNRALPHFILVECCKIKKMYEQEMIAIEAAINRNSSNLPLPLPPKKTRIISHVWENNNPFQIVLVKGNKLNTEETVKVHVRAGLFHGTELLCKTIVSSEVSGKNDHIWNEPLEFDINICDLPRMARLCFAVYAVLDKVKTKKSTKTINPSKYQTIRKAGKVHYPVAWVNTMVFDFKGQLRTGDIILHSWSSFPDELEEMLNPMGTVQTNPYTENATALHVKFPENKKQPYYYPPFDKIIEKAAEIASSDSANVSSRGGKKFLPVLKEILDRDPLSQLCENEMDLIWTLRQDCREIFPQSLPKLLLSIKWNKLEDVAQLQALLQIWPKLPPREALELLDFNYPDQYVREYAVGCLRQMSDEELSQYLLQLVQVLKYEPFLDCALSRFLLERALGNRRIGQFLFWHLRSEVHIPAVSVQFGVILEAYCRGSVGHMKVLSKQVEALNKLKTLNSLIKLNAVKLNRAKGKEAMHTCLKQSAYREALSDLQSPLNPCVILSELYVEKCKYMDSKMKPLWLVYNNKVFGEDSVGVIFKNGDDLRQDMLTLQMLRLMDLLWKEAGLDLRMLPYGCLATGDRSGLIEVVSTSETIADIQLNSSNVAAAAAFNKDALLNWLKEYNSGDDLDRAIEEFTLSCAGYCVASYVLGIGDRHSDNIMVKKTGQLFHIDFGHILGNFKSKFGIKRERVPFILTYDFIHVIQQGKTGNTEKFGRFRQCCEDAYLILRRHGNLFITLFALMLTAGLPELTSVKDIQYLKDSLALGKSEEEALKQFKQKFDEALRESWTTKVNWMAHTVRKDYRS
Sequence of PI3Kβ (P27986 whole entry partner): as the sequence (P27986 whole entry partner) above

With `CC(C)Oc1ccc(-c2nn([C@H](C)c3cc4ccccc4c(=O)n3-c3ccccc3)c3ncnc(N)c23)cc1F` [Example 5b, (−)-3-(1-(4-amino-3-(3-fluoro-4-isopropoxyphenyl)-1H-pyrazolo[3,4-d]pyrimidin-1-yl)ethyl)-2-phenylisoquinolin-1(2H)-one], the melting point lay within 232 to 235 °C. Moreover, the inhibition at 1 µM on PI3Kα lay in the range of 0 to 10%. The inhibition at 1 µM at PI3Kβ is 60 to 80%. Further, the inhibition at 0.1 µM against PI3Kγ was 0 to 20%. At PI3Kδ, this compound came in with an inhibition at 0.1 µM of 40 to 60%.
For `CC(c1nc2cccc(F)c2c(=O)n1-c1ccccc1)n1nc(-c2ccc(O)c(F)c2)c2c(N)ncnc21` (stereo not shown) [Example 16, 2-(1-(4-amino-3-(3-fluoro-4-hydroxyphenyl)-1H-pyrazolo[3,4-d]pyrimidin-1-yl)ethyl)-5-fluoro-3-phenylquinazolin-4(3H)-one], in that order: 212 to 214 °C, 0 to 10%, 60 to 80%, 40 to 60% and 40 to 60%.
For the compound `CC(C)Oc1ccc(-c2nn([C@H](C)c3nc4ccccc4c(=O)n3-c3ccccc3)c3ncnc(N)c23)cc1F` [Example 6b, (−)-2-(1-(4-amino-3-(3-fluoro-4-isopropoxyphenyl)-1H-pyrazolo[3,4-d]pyrimidin-1-yl)ethyl)-3-phenylquinazolin-4(3H)-one], the melting point was in the range of 192 to 195 °C. In addition, on PI3Kα, the inhibition at 1 µM fell in the range of 0 to 10%. For the same compound, the inhibition at 1 µM against PI3Kβ was in the range of 20 to 40%. Besides, at PI3Kγ, the inhibition at 0.1 µM was 0 to 20%. For the same compound, the inhibition at 0.1 µM at PI3Kδ lay within 20 to 40%.
`C[C@H](c1nc2cccc(F)c2c(=O)n1-c1ccccc1)n1nc(-c2ccc(O)c(F)c2)c2c(N)ncnc21` [Example 16b, (−)-2-(1-(4-amino-3-(3-fluoro-4-hydroxyphenyl)-1H-pyrazolo[3,4-d]pyrimidin-1-yl)ethyl)-5-fluoro-3-phenylquinazolin-4(3H)-one] registered a melting point of 269 to 271 °C. On PI3Kα, the inhibition at 1 µM fell in the range of 0 to 10%. The inhibition at 1 µM at PI3Kβ lay in the range of 0 to 10%. In addition, the inhibition at 0.1 µM against PI3Kγ lay within 0 to 20%. In addition, on PI3Kδ, the inhibition at 0.1 µM lay within 20 to 40%.
Regarding `C[C@H](c1cc2ccccc2c(=O)n1-c1ccccc1)n1nc(-c2ccc(O)c(F)c2)c2c(N)ncnc21` [Example 7b, (−)-3-(1-(4-amino-3-(3-fluoro-4-hydroxyphenyl)-1H-pyrazolo[3,4-d]pyrimidin-1-yl)ethyl)-2-phenylisoquinolin-1(2H)-one], the melting point lay within 230 to 232 °C. This compound also registered an inhibition at 1 µM against PI3Kα of 0 to 10%. At PI3Kβ, the inhibition at 1 µM fell in the range of 20 to 40%. The inhibition at 0.1 µM against PI3Kγ lay within 20 to 40%. The compound further came in with an inhibition at 0.1 µM against PI3Kδ of 40 to 60%.
`CC(c1nc2ccc(F)cc2c(=O)n1-c1ccccc1)n1nc(-c2ccc(O)c(F)c2)c2c(N)ncnc21` (stereo not shown) [Example 13, 2-(1-(4-amino-3-(3-fluoro-4-hydroxyphenyl)-1H-pyrazolo[3,4-d]pyrimidin-1-yl)ethyl)-6-fluoro-3-phenylquinazolin-4(3H)-one] registered a melting point of 231 to 232 °C. Moreover, the inhibition at 1 µM on PI3Kα was 0 to 10%. The same compound returned an inhibition at 1 µM against PI3Kβ of 10 to 20%. The compound also yielded an inhibition at 0.1 µM against PI3Kγ of 20 to 40%. In addition, the inhibition at 0.1 µM against PI3Kδ is 20 to 40%.
The compound `C[C@H](c1cc2cccc(Cl)c2c(=O)n1-c1ccccc1)n1nc(-c2ccc(O)c(F)c2)c2c(N)ncnc21` [Example 14b, (−)-3-(1-(4-amino-3-(3-fluoro-4-hydroxyphenyl)-1H-pyrazolo[3,4-d]pyrimidin-1-yl)ethyl)-8-chloro-2-phenylisoquinolin-1(2H)-one] had a melting point of 215 to 219 °C. Besides, the inhibition at 1 µM on PI3Kα was 0 to 10%. The compound further came in with an inhibition at 1 µM on PI3Kβ of 20 to 40%. On PI3Kγ, this compound yielded an inhibition at 0.1 µM of 20 to 40%. The inhibition at 0.1 µM against PI3Kδ fell in the range of 60 to 80%.
`CC(c1cc2cccc(F)c2c(=O)n1-c1ccccc1)n1nc(-c2ccc(O)c(F)c2)c2c(N)ncnc21` (stereo not shown) [Example 15, 3-(1-(4-amino-3-(3-fluoro-4-hydroxyphenyl)-1H-pyrazolo[3,4-d]pyrimidin-1-yl)ethyl)-8-fluoro-2-phenylisoquinolin-1(2H)-one] had a melting point of 228 to 229 °C. In addition, at PI3Kα, the inhibition at 1 µM fell in the range of 0 to 10%. Besides, the inhibition at 1 µM against PI3Kβ fell in the range of 20 to 40%. On PI3Kγ, the inhibition at 0.1 µM was in the range of 40 to 60%. For the same compound, the inhibition at 0.1 µM at PI3Kδ was in the range of 40 to 60%.
For the compound `COc1ccc(-c2nn([C@H](C)c3cc4ccccc4c(=O)n3-c3ccccc3)c3ncnc(N)c23)cc1NS(C)(=O)=O` [Example 9b, (−)—N-(5-(4-amino-1-(1-(1-oxo-2-phenyl-1,2-dihydroisoquinolin-3-yl)ethyl)-1H-pyrazolo[3,4-d]pyrimidin-3-yl)-2-methoxyphenyl)methanesulfonamide], the melting point was in the range of 158 to 162 °C. Besides, the inhibition at 1 µM against PI3Kα is 0 to 10%. This compound also displayed an inhibition at 1 µM against PI3Kβ of 10 to 20%. For the same compound, the inhibition at 0.1 µM on PI3Kγ fell in the range of 0 to 20%. This compound also had an inhibition at 0.1 µM against PI3Kδ of 40 to 60%.
For `Cc1n[nH]c2cc(-c3nn([C@H](C)c4cc5cccc(Cl)c5c(=O)n4-c4ccccc4)c4ncnc(N)c34)ccc12` [Example 21b, (−)-3-(1-(4-amino-3-(3-methyl-1H-indazol-6-yl)-1H-pyrazolo[3,4-d]pyrimidin-1-yl)ethyl)-8-chloro-2-phenylisoquinolin-1(2H)-one], in that order: 225 to 227 °C, 0 to 10%, 10 to 20%, 40 to 60% and 80 to 100%.
The like results for `C[C@H](c1cc2cccc(F)c2c(=O)n1-c1ccccc1)n1nc(-c2ccc(O)c(F)c2)c2c(N)ncnc21` [Example 15b, (−)-3-(1-(4-amino-3-(3-fluoro-4-hydroxyphenyl)-1H-pyrazolo[3,4-d]pyrimidin-1-yl)ethyl)-8-fluoro-2-phenylisoquinolin-1(2H)-one] were, in that order, 258 to 260 °C, 0 to 10%, 0 to 10%, 0 to 20% and 20 to 40%.
In turn, `C[C@H](c1cc2cccc(Cl)c2c(=O)n1-c1ccccc1)n1nc(-c2ccc(OC(F)F)c(F)c2)c2c(N)ncnc21` [Example 17b, (−)-3-(1-(4-amino-3-(4-(difluoromethoxy)-3-fluorophenyl)-1H-pyrazolo[3,4-d]pyrimidin-1-yl)ethyl)-8-chloro-2-phenylisoquinolin-1(2H)-one] showed a melting point of 181 to 185 °C. In addition, at PI3Kα, the inhibition at 1 µM lay within 0 to 10%. The compound also displayed an inhibition at 1 µM at PI3Kβ of 20 to 40%. At PI3Kγ, this compound had an IC50 of 47.3 nM and an inhibition at 0.1 µM of 80 to 100%. At PI3Kδ, this compound returned an IC50 of 45.6 nM and an inhibition at 0.1 µM of 80 to 100%.
Consider `COc1ccc(-c2nn(C(C)c3cc4ccccc4c(=O)n3-c3ccccc3)c3ncnc(N)c23)cc1NS(C)(=O)=O` (stereo not shown) [Example 9, N-(5-(4-amino-1-(1-(1-oxo-2-phenyl-1,2-dihydroisoquinolin-3-yl)ethyl)-1H-pyrazolo[3,4-d]pyrimidin-3-yl)-2-methoxyphenyl)methanesulfonamide], for which the melting point was in the range of 260 to 263 °C. Moreover, the inhibition at 1 µM at PI3Kα fell in the range of 20 to 40%. Also, the inhibition at 1 µM on PI3Kβ was 40 to 60%. Further, on PI3Kγ, the inhibition at 0.1 µM is 20 to 40%. This compound registered an inhibition at 0.1 µM against PI3Kδ of 40 to 60%.

The inhibition is the change of the read-out against control, counted positive when it falls. A word on the melting point: it is the temperature, or range, at which the solid turns liquid. As usually defined, the IC50 is the concentration needed to halve the response being measured. A higher IC50 goes with weaker potency.
